In brackets after ≈: the same amount, converted by molar mass.
Legend:
NCI-H1373 = assay: Antiproliferative activity against human NCI-H1373 cells assessed as inhibition of cell viability incubated for 4 days by luminescence based assay; details: NCI-H1373, 96 h
[1] = Passive permeability in MDCKII-MDR1 cells incubated for 2 hrs by LC-MS analysis; format: ADME, cell-based, Canis lupus familiaris; details: dog, MDCK-MDR1, read-out: permeability
[2] = Half life in fasted ICR mouse at 10 mg/kg, po measured for 24 hrs by LC-MS analysis; format: ADME, organism-based; details: in vivo
[3] = AUC in fasted ICR mouse at 10 mg/kg, po measured for 24 hrs by LC-MS analysis; format: ADME, organism-based; details: in vivo
[4] = Half life in fasted Beagle dog at 10 mg/kg, po measured for 24 hrs by LC-MS analysis; format: ADME, organism-based, Canis lupus familiaris; details: in vivo
[5] = Oral bioavailability in fasted Beagle dog at 10 mg/kg measured for 24 hrs by LC-MS analysis; format: ADME, organism-based, Canis lupus familiaris; details: in vivo
Cytochrome P450 2C19 = Cytochrome P450 2C19 (Homo sapiens, UniProt P33261); assay: Inhibition of CYP2C19 in human liver microsomes using mephenytoin as substrate preincubated for 10 mins followed by substrate addition measured for 30 mins by LC-MS analysis; format: ADME, Microsome
Chain of Cytochrome P450 2C19 (P33261 whole entry): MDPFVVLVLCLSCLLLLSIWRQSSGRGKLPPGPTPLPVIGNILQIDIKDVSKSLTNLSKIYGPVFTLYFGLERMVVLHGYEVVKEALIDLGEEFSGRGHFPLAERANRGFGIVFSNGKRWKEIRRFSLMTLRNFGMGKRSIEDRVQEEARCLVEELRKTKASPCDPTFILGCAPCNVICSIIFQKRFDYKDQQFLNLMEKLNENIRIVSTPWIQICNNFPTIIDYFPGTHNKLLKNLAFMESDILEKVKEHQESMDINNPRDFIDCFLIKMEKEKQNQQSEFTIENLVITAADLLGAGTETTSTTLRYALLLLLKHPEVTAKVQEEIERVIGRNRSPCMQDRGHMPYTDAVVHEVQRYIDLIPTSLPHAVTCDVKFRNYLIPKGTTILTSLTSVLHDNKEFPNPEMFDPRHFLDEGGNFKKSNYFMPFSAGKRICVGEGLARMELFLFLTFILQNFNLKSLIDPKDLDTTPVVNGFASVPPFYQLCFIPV

[6] = Toxicity in […] SCID mouse model xenografted with human NCI-H1373 cells assessed as animal death at 30 mg/kg, po measured for 21 days; format: organism-based; details: in vivo, 504 h, time 21 day
[7] = Thermodynamic solubility of compound at pH 6.5; format: physicochemical; details: buffer, read-out: Therm_solubility
[8] = Plasma protein binding in mouse at 2 uM incubated for 1 hr by LC/MS analysis; format: ADME, cell-free; details: read-out: PPB (converted)
[9] = Cmax in fasted ICR mouse at 10 mg/kg, po measured for 24 hrs by LC-MS analysis; format: ADME, organism-based; details: in vivo
[10] = Metabolic stability in dog liver microsomes assessed as intrinsic clearance preincubated for 5 mins followed by NADPH addition measured for 1 hr by LC-MS analysis; format: ADME, Canis lupus familiaris, Microsome; details: time 65 min, read-out: CLH
[11] = Volume of distribution at steady state in fasted ICR mouse at 2 mg/kg, iv measured for 24 hrs by LC-MS analysis; format: ADME, organism-based; details: in vivo, read-out: Vdss
Cytochrome P450 2C9 = Cytochrome P450 2C9 (Homo sapiens, UniProt P11712); assay: Inhibition of CYP2C9 in human liver microsomes using diclofenac as substrate preincubated for 10 mins followed by substrate addition measured for 30 mins by LC-MS analysis; format: ADME, Microsome
Chain of Cytochrome P450 2C9 (P11712 whole entry): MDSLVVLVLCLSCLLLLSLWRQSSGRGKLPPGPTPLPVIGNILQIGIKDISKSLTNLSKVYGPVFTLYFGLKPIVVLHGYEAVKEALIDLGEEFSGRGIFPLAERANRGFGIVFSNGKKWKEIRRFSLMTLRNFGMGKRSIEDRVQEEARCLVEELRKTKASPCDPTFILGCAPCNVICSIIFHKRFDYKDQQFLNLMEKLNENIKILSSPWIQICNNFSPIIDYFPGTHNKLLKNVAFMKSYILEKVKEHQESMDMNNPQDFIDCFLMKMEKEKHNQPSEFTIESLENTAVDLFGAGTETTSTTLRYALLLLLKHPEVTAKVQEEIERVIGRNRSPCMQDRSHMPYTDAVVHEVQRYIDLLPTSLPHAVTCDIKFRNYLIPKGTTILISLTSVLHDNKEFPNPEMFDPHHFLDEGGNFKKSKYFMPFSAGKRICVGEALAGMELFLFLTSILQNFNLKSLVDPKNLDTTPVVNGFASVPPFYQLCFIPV

[12] = Kinetic solubility of compound at pH 2; format: physicochemical; details: buffer, read-out: Kinetic_solubility
[13] = biological target: T1, Protein mono-ADP-ribosyltransferase PARP12 (Homo sapiens, UniProt Q9H0J9); assay: Inhibition of PARP12 (unknown origin)
T1 sequence (Q9H0J9 whole entry): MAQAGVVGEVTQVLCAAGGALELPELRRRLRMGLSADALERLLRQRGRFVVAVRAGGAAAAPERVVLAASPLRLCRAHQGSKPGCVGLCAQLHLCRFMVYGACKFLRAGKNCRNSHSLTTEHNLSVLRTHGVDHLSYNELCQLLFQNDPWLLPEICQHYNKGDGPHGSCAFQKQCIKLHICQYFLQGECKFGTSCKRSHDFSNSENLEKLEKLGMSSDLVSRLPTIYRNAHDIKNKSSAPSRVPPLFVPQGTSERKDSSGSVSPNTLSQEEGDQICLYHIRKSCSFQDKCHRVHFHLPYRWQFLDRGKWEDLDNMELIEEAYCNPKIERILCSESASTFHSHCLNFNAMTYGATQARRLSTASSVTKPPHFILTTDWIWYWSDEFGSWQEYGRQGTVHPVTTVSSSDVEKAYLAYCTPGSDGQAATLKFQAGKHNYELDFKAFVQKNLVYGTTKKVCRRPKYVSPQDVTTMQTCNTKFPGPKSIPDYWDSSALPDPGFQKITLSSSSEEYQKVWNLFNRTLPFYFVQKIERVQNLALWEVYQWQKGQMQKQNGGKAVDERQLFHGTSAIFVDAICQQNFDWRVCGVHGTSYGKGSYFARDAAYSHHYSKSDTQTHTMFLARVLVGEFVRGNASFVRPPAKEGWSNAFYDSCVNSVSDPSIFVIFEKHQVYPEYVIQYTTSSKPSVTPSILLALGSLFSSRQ

[14] = Toxicity in […] SCID mouse model xenografted with human NCI-H1373 cells assessed as body weight loss at 30 mg/kg, po measured for 21 days; format: organism-based; details: in vivo, 504 h, time 21 day
[15] = Volume of distribution at steady state in fasted Beagle dog at 2 mg/kg, iv measured for 24 hrs by LC-MS analysis; format: ADME, organism-based, Canis lupus familiaris; details: in vivo, read-out: Vdss
[16] = AUC in fasted Beagle dog at 2 mg/kg, iv measured for 24 hrs by LC-MS analysis; format: ADME, organism-based, Canis lupus familiaris; details: Beagle, in vivo
[17] = biological target: T2, Protein mono-ADP-ribosyltransferase TIPARP (Homo sapiens, UniProt Q7Z3E1); assay: Inhibition of PARP7 (unknown origin) using histone as substrate incubated for 1 hr by chemiluminescence assay
T2 sequence (Q7Z3E1 whole entry): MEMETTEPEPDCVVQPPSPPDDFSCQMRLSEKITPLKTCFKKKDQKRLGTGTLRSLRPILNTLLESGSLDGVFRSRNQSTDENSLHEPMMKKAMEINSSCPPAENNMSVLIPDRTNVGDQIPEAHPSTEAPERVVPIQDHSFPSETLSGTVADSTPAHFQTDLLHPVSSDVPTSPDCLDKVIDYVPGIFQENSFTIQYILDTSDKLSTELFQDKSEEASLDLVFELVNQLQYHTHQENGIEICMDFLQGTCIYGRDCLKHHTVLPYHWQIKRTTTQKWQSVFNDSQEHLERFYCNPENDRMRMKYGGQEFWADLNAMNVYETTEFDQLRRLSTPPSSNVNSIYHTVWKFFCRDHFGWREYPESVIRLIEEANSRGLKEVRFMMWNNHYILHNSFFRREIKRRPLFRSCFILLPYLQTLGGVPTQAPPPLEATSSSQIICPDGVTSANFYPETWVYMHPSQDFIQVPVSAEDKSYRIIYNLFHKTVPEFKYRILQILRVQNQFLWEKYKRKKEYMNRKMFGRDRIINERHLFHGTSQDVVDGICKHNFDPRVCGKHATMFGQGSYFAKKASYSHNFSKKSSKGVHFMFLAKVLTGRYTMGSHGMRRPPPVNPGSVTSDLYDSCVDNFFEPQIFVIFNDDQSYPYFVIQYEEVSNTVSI

[18] = Apparent permeability across basolateral to apical side in MDCKII-MDR1 cells incubated for 2 hrs by LC-MS analysis; format: ADME, cell-based, Canis lupus familiaris; details: dog, MDCK-MDR1
[19] = Kinetic solubility of compound at pH 7.4; format: physicochemical; details: buffer, read-out: Kinetic_solubility
[20] = AUC in fasted ICR mouse at 2 mg/kg, iv measured for 24 hrs by LC-MS analysis; format: ADME, organism-based; details: in vivo
Cytochrome P450 3A4 = Cytochrome P450 3A4 (Homo sapiens, UniProt P08684); assay: Inhibition of CYP3A4 in human liver microsomes using midazolam as substrate preincubated for 10 mins followed by substrate addition measured for 30 mins by LC-MS analysis; format: ADME, Microsome
Chain of Cytochrome P450 3A4 (P08684 whole entry): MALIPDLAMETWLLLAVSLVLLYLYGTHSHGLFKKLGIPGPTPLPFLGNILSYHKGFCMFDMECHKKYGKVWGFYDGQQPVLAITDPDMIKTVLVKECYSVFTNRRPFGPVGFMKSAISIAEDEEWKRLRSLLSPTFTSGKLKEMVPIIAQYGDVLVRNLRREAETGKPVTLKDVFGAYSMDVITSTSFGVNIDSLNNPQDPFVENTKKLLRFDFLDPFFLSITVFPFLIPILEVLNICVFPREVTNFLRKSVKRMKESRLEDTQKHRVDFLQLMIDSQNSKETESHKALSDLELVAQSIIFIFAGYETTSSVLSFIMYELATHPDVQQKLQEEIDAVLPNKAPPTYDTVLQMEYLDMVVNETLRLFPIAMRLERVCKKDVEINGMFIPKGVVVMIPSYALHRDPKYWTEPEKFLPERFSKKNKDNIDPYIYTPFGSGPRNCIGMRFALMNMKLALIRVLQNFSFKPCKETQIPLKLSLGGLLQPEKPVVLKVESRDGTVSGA

[21] = Tmax in fasted ICR mouse at 10 mg/kg, po measured for 24 hrs by LC-MS analysis; format: ADME, organism-based; details: in vivo
[22] = Half life in fasted ICR mouse at 2 mg/kg, iv measured for 24 hrs by LC-MS analysis; format: ADME, organism-based; details: in vivo

`O=C(CCOC[C@@H]1CCN1c1cn[nH]c(=O)c1C(F)(F)F)N1CCN2c3ncc(C(F)(F)F)cc3OC[C@@H]2C1` showed an IC50 (NCI-H1373) of 4.1 nM, a Papp at 2 h [1] of 0.852 ×10⁻⁶ cm/s and a t1/2 [2] of 222 min. For the same compound, the AUC [3] was 1146 ng·h/mL, the t1/2 [4] was 216 min and the bioavailability [5] was 45.2%. The IC50 (Cytochrome P450 2C19) was 7550 nM, the Activity [6] was “Non-Toxic” and the solubility thermodynamic [7] was 113 µg/mL (≈ 201 µM). It also gave a fraction unbound at 1 h, 2 µM [8] of 0.019, a Cmax [9] of 752 ng/mL and a CLint scaled [10] of 9.1 mL/min/kg. It also gave a Vd [11] of 1.77 L/kg, an IC50 (Cytochrome P450 2C9) of 2010 nM and a solubility kinetic [12] of 166 µM (≈ 93.4 µg/mL). For the same compound, the IC50 [13] was 360 nM, the Activity [14] was “Non-Toxic” and the Vd [15] was 0.948 L/kg. For the same compound, the AUC at 24 h [16] was 3480 ng·h/mL, the IC50 [17] was 0.56 nM and the Papp B→A at 2 h [18] was 3.3 ×10⁻⁶ cm/s. For the same compound, the solubility kinetic [19] was 158 µM (≈ 88.9 µg/mL), the AUC at 24 h [20] was 680 ng·h/mL and the IC50 (Cytochrome P450 3A4) was greater than 30000 nM. The Tmax [21] was 24 min and the half-life [22] was 42 min.

Source: ChEMBL document CHEMBL5634130, “Exploring the structural-activity relationship of hexahydropyrazino[1,2-d]pyrido[3,2-b][1,4]oxazine derivatives as potent and orally-bioavailable PARP7 inhibitors” (Eur J Med Chem, 2023)
